Results taken from patent publication US11998540B2, “Compositions and methods for treating drug-tolerant glioblastoma” (THE GENERAL HOSPITAL CORPORATION, priority 2015, dated 2024).
“Also recorded” adds a separate entry of the source.

Legend:
GSC8 [1] = assay: Cell growth assay ([…]-GLO), GSC8 naïve; assay type: cell-based, human; conditions: for sensitivity / effect on cell growth (dose-response): 4 day treatment, GSC8 naïve
Experimental: (§1) Patient-derived GSC culture lines were maintained in Neurobasal medium (Life Technologies) supplemented with N2/B27, penicillin/streptomycin (Life Technologies), GlutaMAX (Life Technologies), recombinant human EGF (20 ng/mL, R & D systems), and recombinant human FGF2 (20 ng/mL, R & D systems). For drug persister cultures, fresh compound and media were replenished every 4-6 days.
(§2) Freshly dissociated single cell suspensions were plated (96-well) in triplicate or quadruplicate at 1,000 to 10,000 cells/well for testing. For 4 day growth assays, […]-GLO® Luminescent Cell Viability Assay (Promega) was added to wells and end point luminescence was measured (BioTek Synergy HT Platereader). For 12 day assays, 1× compound in media was added at day 4 and all wells were replated with fresh media and compound at day 8 before viability was measured at day 12. For each inhibitor, n=3 replicates were used for each concentration and was repeated in two to four independent experiments.

GSC8^Per = assay: Cell growth assay (CELLTITER-GLO), dasatinib persisters GSC8^Per; assay type: cell-based, human; conditions: for growth, 12 day treatment: GSC8^Per vs GSC8 naïve; for sensitivity / effect on cell growth (dose-response): 4 day treatment, GSC8^Per (>8 weeks dasatinib)
Experimental: as §1, §2

GSC8 PD0325901^Per = assay: Cell growth assay ([…]-GLO), MEK inhibitor persisters; assay type: cell-based, human; conditions: 4 day treatment; persisters from sustained MEK inhibition
Experimental: as §1, §2

GSC8^12d = assay: Cell growth assay (CELLTITER-GLO), GSC8 treated 12 days with dasatinib; assay type: cell-based, human; conditions: 4 day treatment
Experimental: as §1, §2

H3K27me3 = H3K27me3 ChIP-seq in GSC8; assay type: cell-based, human
Experimental: Chromatin Immunoprecipitation (ChIP) was performed as previously described (Suvà et al., 2014). Briefly, formaldehyde-fixed cells were lysed and sheared (Branson […]) on wet ice. The sheared chromatin was cleared and incubated overnight at 4° C. with the following antibodies: H3K4me3 (Millipore, 07-473, Lot 2207275), H3K27me3 (Millipore, 07-449, lot 2382150), H3K27ac (Active Motif, 39133 lot 25812006), RBPJ (Abcam, ab25949, lot GR169397-1), and cleaved Notch1 (CST, 4147, lot #4). Antibody-chromatin complexes were immunoprecipitated with protein G magnetic Dynal beads (Life Technologies), washed, eluted, reverse crosslinked, and treated with RNAse A followed by proteinase K. ChIP DNA was purified using Ampure XP beads (Beckmann Coulter) and then used to prepare sequencing libraries for sequencing with the Next-Seq Illumina genome analyzer. Reads were aligned to hg19 using BWA (Li and Durbin, 2009) and identical ChIP-seq sequence reads were collapsed to avoid PCR duplicates. In order to avoid possible saturation biases, reads were downsampled to approximately similar numbers ( 20 million reads). […] Quantification of the H3K27me3 ChIP-seq signals, using fore- and background normalization, was essentially performed as outlined in (Zhu et al., 2013) with few modifications. To exclude genomic regions with potential copy number aberrations, read counts derived from whole cell extracts ChIP-seq within 5 kb genomic windows were quantified. Read counts were performed using interval overlap functions of the R package Genomic Ranges (Lawrence et al., 2013). To compute normalization constants, all genomic windows with read counts equal to 0 or greater than 3 standard deviations from the mean were excluded from the analysis. For a given H3K27me3 ChIP-seq data set, the background constant was estimated as the median of the read count distribution within 5 kb windows overlapping the 5% most highly expressed genes, as active genes are considered to be devoid of repressive chromatin modifications. […]

H3K4me3 = H3K4me3 ChIP-seq in GSC8; assay type: cell-based, human; conditions: for H3K4me3 peak width / level: naïve GSCs, KDM5-C70 2.5 μM or GSKJ4 1.5 μM, 4 d
Experimental: Chromatin Immunoprecipitation (ChIP) was performed as previously described (Suvà et al., 2014). Briefly, formaldehyde-fixed cells were lysed and sheared (Branson […]) on wet ice. The sheared chromatin was cleared and incubated overnight at 4° C. with the following antibodies: H3K4me3 (Millipore, 07-473, Lot 2207275), H3K27me3 (Millipore, 07-449, lot 2382150), H3K27ac (Active Motif, 39133 lot 25812006), RBPJ (Abcam, ab25949, lot GR169397-1), and cleaved Notch1 (CST, 4147, lot #4). Antibody-chromatin complexes were immunoprecipitated with protein G magnetic Dynal beads (Life Technologies), washed, eluted, reverse crosslinked, and treated with RNAse A followed by proteinase K. ChIP DNA was purified using Ampure XP beads (Beckmann Coulter) and then used to prepare sequencing libraries for sequencing with the Next-Seq Illumina genome analyzer. Reads were aligned to hg19 using BWA (Li and Durbin, 2009) and identical ChIP-seq sequence reads were collapsed to avoid PCR duplicates. In order to avoid possible saturation biases, reads were downsampled to approximately similar numbers ( 20 million reads). Peaks were called using HOMER v4.6 (Heinz et al., 2010) using matched inputs with the following parameters: H3K4me3, -histone -tagThreshold 30; H3K27ac, -histone -tagThreshold 50; H3K27me3, -histone -size 3000 -[…] 0.1; Notch1 ICD, -factor; and RBPJ, -factor. […] Quantification of the H3K27me3 ChIP-seq signals, using fore- and background normalization, was essentially performed as outlined in (Zhu et al., 2013) with few modifications. To exclude genomic regions with potential copy number aberrations, read counts derived from whole cell extracts ChIP-seq within 5 kb genomic windows were quantified. Read counts were performed using interval overlap functions of the R package Genomic Ranges (Lawrence et al., 2013). To compute normalization constants, all genomic windows with read counts equal to 0 or greater than 3 standard deviations from the mean were excluded from the analysis. For a given H3K27me3 ChIP-seq data set, the background constant was estimated as the median of the read count distribution within 5 kb windows overlapping the 5% most highly expressed genes, as active genes are considered to be devoid of repressive chromatin modifications. The foreground signal was estimated as the median of the read count distribution within 5 kb windows centered around each called peak and subtracting the background signal. To quantify H3K27me3 signal within 5 kb regions of interest, the background signal was subtracted from the corresponding read count and the resulting value divided by the foreground signal. […] In order to quantify ChIP-seq intensities within genomic regions of different sizes (e.g. genes), the obtained normalization constants were scaled accordingly. […]

KDMs = assay: qRT-PCR of KDM gene expression in GSC8; assay type: cell-based, human; conditions: 48 hr drug treatment in GSC8
Experimental: Whole RNA was extracted from 1-3×10^6 cells using the QIAGEN RNeasy kit according to the manufacturer's protocol. For qRT-PCR, total RNA was reverse-transcribed into cDNA (High Capacity cDNA Reverse Transcriptase Kit, Applied Biosystems) and qRT-PCR amplification was performed using fast SYBR Green Master Mix (Life Technologies) with specific PCR primers for genes of interest and 18S as an endogenous control. Relative quantification for each target was performed using the comparative Ct method (Applied Biosystems). For RNA-seq library preparation, Poly(A)^+ RNA was enriched using magnetic oligo(dT)-beads (Life Technologies) and libraries were prepared as previously described (Gifford et al., 2013). Sequences for qRT-PCR primers used are listed at Table 3.

GSC8 [2] = assay: Flow cytometry for Ki67 and EdU incorporation in GSC8; conditions: 1 μM

For `C[C@H](NC(=O)Cc1cc(F)cc(F)c1)C(=O)N[C@H]1N=C(c2ccccc2)c2ccccc2N(C)C1=O` [Compound E], the “growth, 12 day treatment” value (GSC8 [1]; 12 day treatment, naïve GSC8) was “little effect”, the “growth, 12 day treatment” value (GSC8^Per) was “preferentially sensitive” and the “growth, 12 day treatment” value (GSC8^Per; listed as Notch inhibitor (γ-secretase)) was “significantly reduced”.
`CCOC(=O)CCNc1cc(N2CCc3ccccc3CC2)nc(-c2ccccn2)n1` [GSKJ4] was tested, and the “sensitivity / effect on cell growth (dose-response)” value (from here on “sensitivity / effect on cell growth”) (GSC8 PD0325901^Per) was “preferentially sensitive”, the “sensitivity / effect on cell growth” value (GSC8^12d) was “preferentially sensitive; also recorded: significantly compromised viability” and the “rescue of H3K27me3 loss associated with dasatinib treatment” value (H3K27me3; GSC8^12d, GSKJ4 1.5 μM, 8 d, after 4 days of dasatinib) was “rescued the dramatic H3K27me3 loss”. The “effect on pre-existing H3K27me3 landscape” value (H3K27me3; naïve GSC8, 1.5 μM, 8 d) was “negligible effects”, the “sensitivity / effect on cell growth” value (GSC8 [1]) was “well tolerated” and the “H3K4me3 peak width / level” value (H3K4me3) was “did not significantly increase H3K4me3”. For the same compound, the “sensitivity / effect on cell growth” value (GSC8^Per) was “preferentially sensitive; also recorded: significantly compromised viability”.
`CCOC(=O)CCNc1cc(N2CCc3ccccc3CC2)nc(-c2cccnc2)n1` [GSKJ5] was tested, and the “sensitivity / effect on cell growth” value (GSC8^Per) was “no preferential sensitivity; also recorded: Negligible differential effects”.
For `CCOC(=O)c1ccnc(CNCC(=O)N(CC)CCN(C)C)c1` [KDM5-C70], the “sensitivity / effect on cell growth” value (GSC8^12d) was “subtle effects on proliferation”, the “sensitivity / effect on cell growth” value (GSC8 [1]) was “subtle effects on proliferation” and the “effect on dasatinib dose-response curve” value (GSC8 [1]; 4 day, GSC8 naïve simultaneously treated with KDM5-C70 2.5 μM vs vehicle) was “No significant effect”. The “H3K4me3 peak width / level” value (H3K4me3) was “caused H3K4me3 peaks to expand; also recorded: H3K4me3 peak width increases”, the “rescue of H3K4me3 reduction associated with dasatinib treatment” value (H3K4me3; with 4 day dasatinib) was “partially rescued; also recorded: significantly attenuated H3K4me3 reduction” and the “sensitivity / effect on cell growth” value (GSC8^Per) was “subtle effects on proliferation”.
`O=C(NOC[C@H](O)CO)c1ccc(F)c(F)c1Nc1ccc(I)cc1F` [PD0325901] was tested, and the KDM gene expression (KDMs) was “KDM induction; also recorded: up-regulation of numerous KDMs” and the “sensitivity / effect on cell growth” value (GSC8 [1]) was “differentially sensitive”.
In the case of `CC1(COc2ccc3c(c2)ncn3-c2ccc3cccc(N4CCC(N)CC4)c3n2)COC1` [crenolanib], the “sensitivity / effect on cell growth” value (GSC8 [1]) is reported as “preferentially sensitive” and the “sensitivity / effect on cell growth” value (GSC8^Per) is reported as “relatively insensitive; also recorded: tolerated higher concentrations”.
`Cc1nc(Nc2ncc(C(=O)Nc3c(C)cccc3Cl)s2)cc(N2CCN(CCO)CC2)n1` [dasatinib] was tested, and the “H3K27me3 peaks after drug treatment” value (H3K27me3; GSC8^12d, GSC8^Per, GSC8 PD0325901^Per) was “strongly reduced”, the IC50 (GSC8 [1]; Homo sapiens, 96 h) was about 10 nM and the “H3K4me3 at cell cycle-associated promoters” value (H3K4me3; short-term dasatinib treatment) was “reduced”. For the same compound, the “sensitivity / effect on cell growth” value (GSC8^Per) was “relatively insensitive; also recorded: tolerated higher concentrations”, the “cell cycle effect (Ki67 / EdU)” value (GSC8 [2]; 4 d) was “induced cell cycle arrest and G0 induction” and the “Ki67^+ cells” value (GSC8 [2]; after 4 days of dasatinib, 93% in naïve) was 17%.
